In patent publication US20260225997A1, “IONIZABLE AMINE LIPIDS” (Intellia Therapeutics, Inc., priority 2018, published 2026):
Where two headings read alike, the source gives them in different places.

Key:
[1] = LNP average particle size and polydispersity by dynamic light scattering (Malvern Zetasizer); type: physicochemical
Procedure, shortened: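 LNPs diluted in PBS to a count rate of about 200–400 kcps and measured by dynamic light scattering. Size given as intensity-weighted Z-average diameter, with number-average diameter and polydispersity index also reported.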

[2] = pKa measurement of unformulated amine lipid (fluorescence, method of Jayaraman et al.); type: physicochemical; conditions: 100 μM in 0.1 M phosphate buffer pH 4.5-9.0
Procedure: The pKa of each amine lipid was determined according to the method in Jayaraman, et al. (Angewandte Chemie, 2012) with the following adaptations. […] Lipid was diluted to 100 μM in 0.1 M phosphate buffer (Boston Bioproducts) where the pH ranged from 4.5-9.0. Fluorescence intensity was measured using excitation and emission wavelengths of 321 nm and 448 nm.

TTR = experiment: Transthyretin (TTR) ELISA analysis of mouse serum after LNP dosing; type: in vivo; conditions: for response vs control in vivo at 0.1 mg/kg / response vs control in vivo at 0.03 mg/kg: read-out: Serum TTR % TSS
Procedure, shortened: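 Female CD-1 mice aged 6-10 weeks were grouped by body weight and given LNPs by lateral tail vein injection (0.2 mL per animal, about 10 mL per kilogram). Mice were bled by cardiac puncture under isoflurane into serum separator tubes. Serum was diluted 10,000-fold for the 0.1 mpk dose, and total TTR was quantified with a Mouse Prealbumin (Transthyretin) ELISA Kit following the kit directions.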

[3] = Table 3, Example 52: LNP, Cas9 mRNA + sgRNA (G650) 1:1 w/w, N:P 6.0
[4] = Table 5, Example 53: LNP with gRNA G282 (TTR)
[5] = Table 5, Example 53: LNP with gRNA G650 (B2M)
[6] = Table 10, Example 55: LNP, G282 1:1
[7] = Table 14, Example 58: LNP, G282 1:1
[8] = Table 16, Example 59: LNP, G282 1:1
[9] = Table 18, Example 60: LNP, G502 1:2
[10] = Table 22, Example 62: LNP, G282 1:2
[11] = Table 24, Example 63: LNP, G282 1:1
[12] = Example 53: 0.1 mpk i.v., 6 days post-dose, G282 1:1
[13] = Example 53: 0.1 mpk i.v., CD-1 female mice, 6 days post-dose, G282 1:1
[14] = Example 53: 0.3 mpk i.v., 6 days post-dose, G282 1:1
[15] = Example 53: 0.3 mpk i.v., CD-1 female mice, 6 days post-dose, G282 1:1
[16] = Example 55: 0.1 mpk i.v., 7 days post-dose, G282 1:1
[17] = Example 58: 0.1 mpk i.v., 6 days post-dose, G282 1:1
[18] = Example 59: 0.1 mpk i.v., 7 days post-dose, G282 1:1
[19] = Example 60: 0.1 mpk i.v., 6 days post-dose, G502 1:2
[20] = Example 62: 0.03 mpk i.v., 7 days post-dose, G282 1:2
[21] = Example 62: 0.1 mpk i.v., 7 days post-dose, G282 1:2
[22] = Example 63: 0.03 mpk i.v., 7 days post-dose, G282 1:1
[23] = Example 63: 0.1 mpk i.v., 7 days post-dose, G282 1:1
[24] = Mus musculus, iv, 144 h, Example 58: 0.1 mpk i.v., 6 days post-dose, G282 1:1
[25] = Mus musculus, iv, 144 h, Example 60: 0.1 mpk i.v., 6 days post-dose, G502 1:2
[26] = Mus musculus, iv, 168 h, Example 59: 0.1 mpk i.v., 7 days post-dose, G282 1:1
[27] = Mus musculus, iv, 168 h, Example 62: 0.03 mpk i.v., 7 days post-dose, G282 1:2
[28] = Mus musculus, iv, 168 h, Example 62: 0.1 mpk i.v., 7 days post-dose, G282 1:2
[29] = Mus musculus, iv, 168 h, Example 63: 0.03 mpk i.v., 7 days post-dose, G282 1:1
[30] = Mus musculus, iv, 168 h, Example 63: 0.1 mpk i.v., 7 days post-dose, G282 1:1
[31] = Table 12, Example 56: LNP, G282
[32] = Table 20, Example 61: LNP, G282 1:1
[33] = Example 56: 0.1 mpk i.v., 7 days post-dose, G282
[34] = Example 61: 0.1 mpk i.v., 7 days post-dose, G282 1:1
[35] = Mus musculus, iv, 168 h, Example 61: 0.1 mpk i.v., 7 days post-dose, G282 1:1
[36] = Table 8, Example 54: LNP, G650 (B2M) 1:1
[37] = Table 26, Example 64: LNP, G282 1:1

## CCCCCCCCCOC(=O)CCCCCCCN(CCO)CCCCCCCC(OCCCCCCCC)OCCCCCCCC [Compound 1, nonyl 8-((8,8-bis(octyloxy)octyl)(2-hydroxyethyl)amino octanoate]
[1]; [3]
  Num Ave Size (nm): 57.04 nm
  PDI: 0.105
  Z-Ave Size (nm): 79.49 nm
[1]; [4]
  Num Ave Size (nm): 61.19 nm
  PDI: 0.008
  Z-Ave Size (nm): 75.77 nm
[1]; [5]
  Num Ave Size (nm): 65.11 nm
  PDI: 0.028
  Z-Ave Size (nm): 80.96 nm
[1]; [6]
  Num Ave Size (nm): 55.38 nm
  PDI: 0.05
  Z-Ave Size (nm): 69.94 nm
[1]; [7]
  Num Ave Size (nm): 55.38 nm
  PDI: 0.05
  Z-Ave Size (nm): 69.94 nm
[1]; [8]
  Num Ave Size (nm): 57.78 nm
  PDI: 0.04
  Z-Ave Size (nm): 72.21 nm
[1]; [9]
  Num Ave Size (nm): 58.01 nm
  PDI: 0.037
  Z-Ave Size (nm): 74.5 nm
[1]; [10]
  Num Ave Size (nm): 58.01 nm
  PDI: 0.037
  Z-Ave Size (nm): 74.5 nm
[1]; [11]
  Num Ave Size (nm): 52 nm
  PDI: 0.06
  Z-Ave Size (nm): 70 nm
[2]
  pKa: 6.3
TTR; [12]
  TSS (serum TTR % TSS): 5 % TSS
TTR; [13]
  Serum TTR: 19 µg/mL
TTR; [14]
  TSS (serum TTR % TSS): 5 % TSS
TTR; [15]
  Serum TTR: 5 µg/mL
TTR; [16]
  Serum TTR: 391 µg/mL
  Serum TTR (% TSS): 34 % TSS
TTR; [17]
  Serum TTR: 656 µg/mL
TTR; [18]
  Serum TTR: 327 µg/mL
TTR; [19]
  Serum TTR: 353 µg/mL
TTR; [20]
  Serum TTR: 594 µg/mL
TTR; [21]
  Serum TTR: 241 µg/mL
TTR; [22]
  Serum TTR: 741.05 µg/mL
TTR; [23]
  Serum TTR: 351.76 µg/mL
TTR; [24]
  response vs control in vivo at 0.1 mg/kg: 66%
TTR; [25]
  response vs control in vivo at 0.1 mg/kg: 25%
TTR; [26]
  response vs control in vivo at 0.1 mg/kg: 35%
TTR; [27]
  response vs control in vivo at 0.03 mg/kg: 93%
TTR; [28]
  response vs control in vivo at 0.1 mg/kg: 38%
TTR; [29]
  response vs control in vivo at 0.03 mg/kg: 91.8%
TTR; [30]
  response vs control in vivo at 0.1 mg/kg: 43.6%

## CCCCCCCCOC(CCCCCCCN(CCO)CCCCCCCC(=O)OC(CC)CCCCCCCC)OCCCCCCCC (stereo not drawn) [Compound 17, undecan-3-yl 8-((8,8-bis(octyloxy)octyl)(2-hydroxyethyl)amino)octanoate]
[1]; [7]
  Num Ave Size (nm): 54.25 nm
  PDI: 0.056
  Z-Ave Size (nm): 68.72 nm
[1]; [10]
  Num Ave Size (nm): 44.93 nm
  PDI: 0.072
  Z-Ave Size (nm): 62.89 nm
[2]
  pKa: 6.21
TTR; [17]
  Serum TTR: 479 µg/mL
TTR; [20]
  Serum TTR: 495 µg/mL
TTR; [21]
  Serum TTR: 304 µg/mL
TTR; [24]
  response vs control in vivo at 0.1 mg/kg: 48%
TTR; [27]
  response vs control in vivo at 0.03 mg/kg: 78%
TTR; [28]
  response vs control in vivo at 0.1 mg/kg: 48%

## CCCCCCCCCOC(=O)CCCCCCCN(CCO)CCCCCCCC(=O)OC(CCCCCCCC)CCCCCCCC [Compound 18, heptadecan-9-yl 8-((2-hydroxyethyl)(8-(nonyloxy)-8-oxooctyl)amino)octanoate, reference compound]
[1]; [31]
  Num Ave Size (nm): 69.77 nm
  PDI: 0.112
  Z-Ave Size (nm): 106.6 nm
[1]; [8]
  Num Ave Size (nm): 53.06 nm
  PDI: 0.093
  Z-Ave Size (nm): 75.79 nm
[1]; [32]
  Num Ave Size (nm): 52.25 nm
  PDI: 0.083
  Z-Ave Size (nm): 74.67 nm
[2]
  pKa: 6.6
TTR; [33]
  Serum TTR: 415 µg/mL
  Serum TTR (% TSS): 52 % TSS
TTR; [18]
  Serum TTR: 324 µg/mL
TTR; [34]
  Serum TTR: 615 µg/mL
TTR; [26]
  response vs control in vivo at 0.1 mg/kg: 35%
TTR; [35]
  response vs control in vivo at 0.1 mg/kg: 48%

## CCCCC/C=C\C/C=C\CCCCCCCC(=O)OCC(COC(=O)CCC(OCCCCCCCC)OCCCCCCCC)COC(=O)OCCCN(CC)CC (stereo not drawn) [Compound 19, 3-((4,4-bis(octyloxy)butanoyl)oxy)-2-(((((3-(diethylamino)propoxy))-carbonyl)oxy)methyl)propyl (9Z,12Z)-octadeca-9,12-dienoate, reference compound]
[1]; [3]
  Num Ave Size (nm): 64.97 nm
  PDI: 0.056
  Z-Ave Size (nm): 82.71 nm
[1]; [4]
  Num Ave Size (nm): 62.86 nm
  PDI: 0.015
  Z-Ave Size (nm): 79.83 nm
[1]; [5]
  Num Ave Size (nm): 64.97 nm
  PDI: 0.056
  Z-Ave Size (nm): 82.71 nm
[1]; [36]
  Num Ave Size (nm): 64.97 nm
  PDI: 0.056
  Z-Ave Size (nm): 82.71 nm
[1]; [6]
  Num Ave Size (nm): 64.95 nm
  PDI: 0.025
  Z-Ave Size (nm): 81.76 nm
[1]; [31]
  Num Ave Size (nm): 63.19 nm
  PDI: 0.047
  Z-Ave Size (nm): 79.18 nm
[1]; [7]
  Num Ave Size (nm): 71.1 nm
  PDI: 0.007
  Z-Ave Size (nm): 84.99 nm
[1]; [8]
  Num Ave Size (nm): 71.49 nm
  PDI: 0.02
  Z-Ave Size (nm): 86.84 nm
[1]; [9]
  Num Ave Size (nm): 73.15 nm
  PDI: 0.033
  Z-Ave Size (nm): 88.6 nm
[1]; [32]
  Num Ave Size (nm): 71.49 nm
  PDI: 0.02
  Z-Ave Size (nm): 86.84 nm
[1]; [10]
  Num Ave Size (nm): 73.15 nm
  PDI: 0.033
  Z-Ave Size (nm): 88.6 nm
[1]; [11]
  Num Ave Size (nm): 66 nm
  PDI: 0.03
  Z-Ave Size (nm): 82 nm
[1]; [37]
  Num Ave Size (nm): 65 nm
  PDI: 0.03
  Z-Ave Size (nm): 83 nm
[2]
  pKa: 6.4
TTR; [12]
  TSS (serum TTR % TSS): 85 % TSS
TTR; [13]
  Serum TTR: 55 µg/mL
TTR; [14]
  TSS (serum TTR % TSS): 3 % TSS
TTR; [15]
  Serum TTR: 55 µg/mL
TTR; [16]
  Serum TTR: 528 µg/mL
  Serum TTR (% TSS): 46 % TSS
TTR; [33]
  Serum TTR: 865 µg/mL
  Serum TTR (% TSS): 108 % TSS
TTR; [18]
  Serum TTR: 438 µg/mL
TTR; [19]
  Serum TTR: 517 µg/mL
TTR; [34]
  Serum TTR: 438 µg/mL
TTR; [20]
  Serum TTR: 560 µg/mL
TTR; [21]
  Serum TTR: 414 µg/mL
TTR; [22]
  Serum TTR: 593.01 µg/mL
TTR; [23]
  Serum TTR: 134.54 µg/mL
TTR; Example 64: Dose 0.03 mpk (table) i.v., 7 days post-dose, G282 1:1
  Serum TTR: 622.0 µg/mL
TTR; [24]
  response vs control in vivo at 0.1 mg/kg: 59%
TTR; [25]
  response vs control in vivo at 0.1 mg/kg: 36%
TTR; [26]
  response vs control in vivo at 0.1 mg/kg: 47%
TTR; [35]
  response vs control in vivo at 0.1 mg/kg: 34%
TTR; [27]
  response vs control in vivo at 0.03 mg/kg: 88%
TTR; [28]
  response vs control in vivo at 0.1 mg/kg: 65%
TTR; [29]
  response vs control in vivo at 0.03 mg/kg: 73.5%
TTR; [30]
  response vs control in vivo at 0.1 mg/kg: 16.7%
TTR; Mus musculus, iv, 168 h, Example 64: Dose 0.03 mpk (table) i.v., 7 days post-dose, G282 1:1, read-out: Serum TTR (% KD)
  inhibition in vivo at 0.03 mg/kg: -8.6%

## CCCCCCCCOC(CCCCCCCN(CCO)CCCCCCCC(=O)OC(CC)CCCCCC)OCCCCCCCC (stereo not drawn) [Compound 28, nonan-3-yl 8-((8,8-bis(octyloxy)octyl)(2-hydroxyethyl)amino)octanoate]
[1]; [11]
  Num Ave Size (nm): 42 nm
  PDI: 0.30
  Z-Ave Size (nm): 78 nm
[2]
  pKa: 6.41
TTR; [22]
  Serum TTR: 493.60 µg/mL
TTR; [23]
  Serum TTR: 321.26 µg/mL
TTR; [29]
  response vs control in vivo at 0.03 mg/kg: 61.2%
TTR; [30]
  response vs control in vivo at 0.1 mg/kg: 39.8%
